Measured values taken from patent publication US11279768B1, “Anti-cancer antibodies, combination therapies, and uses thereof” (PRECISION BIOLOGICS, INC., priority 2015, dated 2022).

How the values were obtained:
[1] = test system: lung cancer samples; assay: Immunohistochemistry, paraffin tissue sections, lung; assay type: binding
Source text: (§1) FIG. 2. Immunohistochemistry results from cancer tissue arrays. Immunohistochemistry method (IHC) was used for determining the presence of NEO-101/102, NEO-201 and NEO-301 antigens on paraffin microarrays and tissues. These primary antibodies (NEO-101/NEO-102, NEO-201 and NEO-301) were biotinylated prior to use. Paraffin tissue Microarrays and slides of tissues were reacted with the primary Ab after inactivating endogenous peroxidase and blocking the slides. Staining was detected with streptavidin-horseradish peroxidase conjugate and visualized with chromogen. Biotinylated human IgG1 was used as negative control and mouse anti-human cytokeratin monoclonal antibody was used as positive control. Antibody staining is measured as % and intensity of tumor epithelial cells and luminal secretion within the whole tissue section.
(§2) Immunohistochemistry (IHC) was used for determining the presence of NEO-101/102, NEO-201 and NEO-301 antigens on paraffin microarrays and tissues. These primary antibodies (NEO-101/NEO-102, NEO-201 and NEO-301) were biotinylated prior to use. […] Staining was detected with streptavidin-horseradish peroxidase conjugate and visualized with chromogen. […] Antibody staining was measured as % and intensity of tumor epithelial cells and luminal secretion within the whole tissue section. […]

[2] = test system: colorectal adenocarcinoma cells; assay: Antigen expression by Flow Cytometry, colorectal adenocarcinoma cell lines; assay type: binding, Human; settings: multiple colorectal adenocarcinoma cell lines; primary antibody 10 ug/mL
Protocol: (§3) FIG. 1. NEO-101, NEO-201 and NEO-301 Antigen Expression by Human Normal and Cancer Cell Lines. NEO-101, NEO-201 and NEO-301 specific antigen expression in various cell lines were detected by Flow Cytometry. Viable cell suspensions were incubated with primary antibody NEO-101, NEO-201 and NEO-301 separately at 10 ug/mL. Human IgG (10 ug/mL) was used as negative control. Goat anti-human IgG (Fc)-phycoerythrin conjugate was used for primary antibody detection; 7-ADD was used for excluding dead cells from analysis. The staining was measured by Flow Cytometry (Guava instrument, Millipore). Median fluorescent intensity (MFI) and % of stained cells was used for determining presence of specific antigen on each cell line.
(§4) Antigen expression in cell lines of various origins were detected by Flow Cytometry. Viable cell suspensions were incubated with primary antibody NEO-101, NEO-201 and NEO-301 separately at 10 ug/mL. Human IgG (10 ug/mL) was used as negative control. Goat anti-human IgG (Fc)-phycoerythrin conjugate was used for primary antibody detection; 7-ADD was used for excluding dead cells from analysis. The staining was measured by Flow Cytometry (Guava instrument, Millipore). Median fluorescent intensity (MFI) and % of stained cells was used for determining presence of specific antigen on each cell line. […]

[3] = test system: pancreatic adenocarcinoma cells; assay: Antigen expression by Flow Cytometry, pancreatic adenocarcinoma cell lines; assay type: binding, Human; settings: primary antibody 10 ug/mL
Protocol: as §3, §4

[4] = test system: pancreatic cancer samples; assay: Immunohistochemistry, paraffin tissue sections, pancreas; assay type: binding
Source text: as §1, §2

[5] = test system: pancreatic cancer samples; assay: Immunohistochemistry, cancer tissue microarray, pancreas; assay type: binding
Source text: as §1, §2

[6] = test system: lung cancer samples; assay: Immunohistochemistry, cancer tissue microarray, lung; assay type: binding
Source text: as §1, §2

[7] = test system: lung squamous carcinoma cells; assay: Antigen expression by Flow Cytometry, lung squamous cell carcinoma cell lines; assay type: binding, Human; settings: multiple lung squamous cell carcinoma cell lines; primary antibody 10 ug/mL
Protocol: as §3, §4

[8] = test system: colon cancer samples; assay: Immunohistochemistry, paraffin tissue sections, colon; assay type: binding
Source text: as §1, §2

[9] = test system: lung adenocarcinoma cells; assay: Antigen expression by Flow Cytometry, lung adenocarcinoma cell lines; assay type: binding, Human; settings: multiple lung adenocarcinoma cell lines; primary antibody 10 ug/mL
Protocol: as §3, §4

[10] = test system: uterus cancer samples; assay: Immunohistochemistry, cancer tissue microarray, uterus; assay type: binding
Source text: as §1, §2

[11] = test system: colon cancer samples; assay: Immunohistochemistry, cancer tissue microarray, colon; assay type: binding
Source text: as §1, §2

[12] = test system: skin cancer samples; assay: Immunohistochemistry, cancer tissue microarray, skin; assay type: binding
Source text: as §1, §2

[13] = test system: stomach cancer samples; assay: Immunohistochemistry, cancer tissue microarray, stomach; assay type: binding
Source text: as §1, §2

NEO-201: Humanized 16C3 antibody; binds epitopes in CEACAM5 and CEACAM6
cancer samples positive for the antigen (IHC) [1]: 90%
antigen expression detected by Flow Cytometry [2]: detected
antigen expression detected by Flow Cytometry [3]: detected
cancer samples positive for the antigen (IHC) [4]: 83%
cancer samples positive for the antigen (IHC) [5]: 86%
cancer samples positive for the antigen (IHC) [6]: 61%
antigen expression detected by Flow Cytometry [7]: detected
cancer samples positive for the antigen (IHC) [8]: 94%
antigen expression detected by Flow Cytometry [9]: detected
cancer samples positive for the antigen (IHC) [10]: 51%
cancer samples positive for the antigen (IHC) [11]: 85%
cancer samples positive for the antigen (IHC) [12]: 16%

B1: NEO-101: Chimeric NPC-1 antibody, engineered in CHO-DG44 production cell clone 4B7; targets a variant of MUC5AC (protein)
light: MDFQVQIFSFLLISASVILSRGQVVLTQSPVIMSASPGEKVTMTCSASSSISYMYWYQQKPGTSPKRWIYDTSKLASGVPARFSGSGSGTSYSLTISNMEAGDAATYYCHQRDSYPWTFGGGTNLEIKRADAAPTVSIFPPSSEQLTSGGASVVCFLNNFYPKDINVKWKIDGSERQNGVLNSWTDQDSKDSTYSMSSTLTLTKDEYERHNSYTCEATHKTSTSPIVKSFNRNEC
heavy: MAVLALLLCLVTFPSCVLSQVQLKESGPDLVAPSQSLSITCTVSGFSLSKFGVNWVRQPPGKGLEWLGVIWGDGSTSYNSGLISRLSISKENSKSQVFLKLNSLQADDTATYYCVKPGGDYWGHGTSVTVSSAKTTPPSVYPLAPGSAAQTNSMVTLGCLVKGYFPEPVTVTWNSGSLSSGVHTFPAVLQSDLYTLSSSVTVPSSTWPSETVTCNVAHPASSTKVDKKIVPRDCGCKPCICTVPEVSSVFIFPPKPKDVLTITLTPKVTCVVVDISKDDPEVQFSWFVDDVEVHTAQTQPREEQFNSTFRSVSELPIMHQDWLNGKEFKCRVNSAAFPAPIEKTISKTKGRPKAPQVYTIPPPKEQMAKDKVSLTCMITDFFPEDITVEWQWNGQPAENYKNTQPIMDTDGSYFVYSKLNVQKSNWEAGNTFTCSVLHEGLHNHHTEKSLSHSPGK
modifications: NPC-1 antibody light chain; (46)..(55) CDR1; (71)..(77) CDR2; (110)..(118) CDR3; NPC-1 antibody heavy chain; (49)..(54) CDR1; (69)..(84) CDR2; (114)..(121) CDR3
notes: Chimeric NPC-1 antibody, engineered in CHO-DG44 production cell clone 4B7; targets a variant of MUC5AC
cancer samples positive for the antigen (IHC) [1]: 67%
antigen expression detected by Flow Cytometry [2]: detected
antigen expression detected by Flow Cytometry [3]: detected
cancer samples positive for the antigen (IHC) [4]: 82%
cancer samples positive for the antigen (IHC) [13]: 30%
cancer samples positive for the antigen (IHC) [5]: 31%
cancer samples positive for the antigen (IHC) [8]: 87%
cancer samples positive for the antigen (IHC) [10]: 41%
cancer samples positive for the antigen (IHC) [11]: 61%
